For this assay, the system named is ST14A. Kind of assay: Modulation of RE1/NRSE expressed in ST14A cells assessed as increase in luciferase reporter activity at 50 nM after 72 hrs relative to control. Format: cell-based. For orientation: A reporter such as luciferase makes a cellular process visible.

SMILES strings stand for the structures.

`Cc1ccn2c(-c3csc(NCc4ccco4)n3)c(C)nc2c1`: the Activity came to 0.99. As for `CN(C)c1ccc(Nc2nc(-c3ccccc3)cs2)cc1`, the figure is 1.3; as for `C=CCNc1nc(-c2c(C)nc3ccccn23)cs1`, 0.91; as for `Cc1nc2ccccn2c1-c1csc(NC(=O)c2cccnc2)n1`, 0.98. Take `Cc1ccn2c(-c3csc(Nc4ccc(N(C)C)cc4)n3)c(C)nc2c1`: the Activity was 2.55. As for `CCN(CC)c1ccc(Nc2nc(-c3c(C)nc4cc(C)ccn34)cs2)cc1`, the figure is 1.06. To `Cc1nc2ncccn2c1-c1csc(Nc2ccc(O)cc2)n1` belongs 0.89. For the molecule `Cc1nc2sccn2c1-c1csc(Nc2ccc(O)cc2)n1`, the Activity is 0.95. As for `Cc1nc2ccccn2c1-c1csc(Nc2ccc(N)cc2)n1`, the figure is 1.28; as for `CCN(CC)c1ccc(Nc2nc(-c3c(C)nc4sccn34)cs2)cc1`, 1.04. As for `COc1ccc(Nc2nc(-c3c(C)nc4cc(C)ccn34)cs2)cc1`, the figure is 2.19; as for `Cc1nc2ccccn2c1-c1csc(NC(=O)c2ccccc2)n1`, 1.09; as for `Cc1nc2ccccn2c1-c1csc(NCc2ccccc2)n1`, 0.97.

For the molecule `COc1cc(Br)c(Nc2nc(-c3c(C)nc4cc(C)ccn34)cs2)c(Br)c1`, the Activity amounted to 1.07. To `Cc1ccn2c(-c3csc(Nc4cccc(C(=O)O)c4)n3)c(C)nc2c1` belongs 1.14. To `Cc1nc2ncccn2c1-c1csc(Nc2ccc(N(C)C)cc2)n1` belongs 3.34; to `Cc1ccnc(Nc2nc(-c3c(C)nc4ccccn34)cs2)c1`, 0.98; to `Cc1nc2ccccn2c1-c1csc(NC(=O)c2ccncc2)n1`, 1. `Cc1nc2ccccn2c1-c1csc(Nc2cccc(O)c2)n1`: the Activity came out at 1.04. To `COc1cc(Br)c(Nc2nc(-c3c(C)nc4ncccn34)cs2)c(Br)c1` belongs 1.03; to `CCOc1ccccc1Nc1nc(-c2c(C)nc3cc(C)ccn23)cs1`, 0.94. `Cc1nc2ccccn2c1-c1csc(N)n1`: the Activity came to 0.87. As for `Cc1ccn2c(-c3csc(Nc4ccc(O)cc4)n3)c(C)nc2c1`, the figure is 1.08; as for `Cc1nc2ccccn2c1-c1csc(NCc2ccco2)n1`, 1.01.

In the case of `CCOc1ccc(Nc2nc(-c3c(C)nc4cc(C)ccn34)cs2)cc1`, the Activity was 1.88. Take `Cc1nc2sccn2c1-c1csc(Nc2ccc(N)cc2)n1`: the Activity turned out to be 1.14. As for `Cc1nc2ccccn2c1-c1csc(Nc2ccccc2)n1`, the figure is 1.01; as for `COc1ccc(Nc2nc(-c3c(C)nc4ncccn34)cs2)cc1`, 2.29; as for `Cc1ccn2c(-c3csc(NCc4ccccc4)n3)c(C)nc2c1`, 1.3.

For the molecule `Cc1nc2ccccn2c1-c1csc(NC(=O)c2ccc(Br)cc2)n1`, the Activity was determined as 0.94. To `Cc1nc2ccccn2c1-c1csc(Nc2ccc(O)cc2)n1` belongs 1.02.

In the case of `COc1ccc(Cl)c(Nc2nc(-c3c(C)nc4ccccn34)cs2)c1`, the Activity is 1.09.

Take `COc1ccccc1Nc1nc(-c2c(C)nc3ncccn23)cs1`: the Activity was found to be 0.97. As for `Cc1ccn2c(-c3csc(Nc4ccc(C(=O)O)cc4)n3)c(C)nc2c1`, the figure is 1.12. To `Cc1nc2ccccn2c1-c1csc(Nc2ccc(Br)cc2)n1` belongs 1.9; to `Cc1nc2sccn2c1-c1csc(Nc2ccc(N(C)C)cc2)n1`, 1.8. As to `Cc1nc2ccccn2c1-c1csc(NC(=O)c2ccco2)n1`, the Activity came out at 0.94. To `CCN(CC)c1ccc(Nc2nc(-c3c(C)nc4ccccn34)cs2)cc1` belongs 1.09; to `CN(C)c1ccc(Nc2nc(-c3ccncc3)cs2)cc1`, 1.13. In the case of `COc1ccc(Nc2nc(-c3c(C)nc4ccccn34)cs2)cc1`, the Activity stood at 2. To `CCN(CC)c1ccc(Nc2nc(-c3c(C)nc4ncccn34)cs2)cc1` belongs 1.16; to `Cc1nc(N)sc1-c1csc(Nc2ccc(N(C)C)cc2)n1`, 1.23; to `COc1ccc(Cl)c(Nc2nc(-c3c(C)nc4sccn34)cs2)c1`, 0.91. To `COc1ccc(Cl)c(Nc2nc(-c3c(C)nc4ncccn34)cs2)c1` belongs 0.74; to `Cc1ccn2c(-c3csc(Nc4ccc(N)cc4)n3)c(C)nc2c1`, 1.14.

These data come from ChEMBL document CHEMBL1150251, “SAR and QSAR study on 2-aminothiazole derivatives, modulators of transcriptional repression in Huntington's disease” (Bioorg Med Chem, 2008).
